Common to all, as to assay type: functional
The test system of assay [1] is Mycobacterium tuberculosis. Put plainly: Antituberculosis activity against Mycobacterium tuberculosis H37Rv assessed as growth inhibition after 12 to 28 days by L-J MIC method. The conditions noted are these: for MIC: Mycobacterium tuberculosis, H37Rv.
The subject of assay [2] is Candida albicans. Description: Antimicrobial activity against Candida albicans MTCC 183 assessed as growth inhibition after 48 hr by agar streak dilution technique. The conditions noted are these: MTCC 183, 48 h.
Assay [3] deals with Aspergillus niger. Description: Antimicrobial activity against Aspergillus niger MTCC 282 assessed as growth inhibition after 48 hr by agar streak dilution technique. The conditions noted are these: MTCC 282, 48 h.
Assay [4] has as its system Pseudomonas aeruginosa. Description: Antimicrobial activity against Pseudomonas aeruginosa MTCC 741 assessed as growth inhibition after 24 hr by agar streak dilution technique. The following applies: MTCC 741, 24 h.
Assay [5] has as its system Escherichia coli. Put plainly: Antimicrobial activity against Escherichia coli MTCC 739 assessed as growth inhibition after 24 hr by agar streak dilution technique. The following applies: MTCC 739, 24 h.
The test system of assay [6] is Bacillus subtilis. Description: Antimicrobial activity against Bacillus subtilis MTCC 430 assessed as growth inhibition after 24 hr by agar streak dilution technique. The conditions noted are these: MTCC 430, 24 h.
Assay [7] relates to Staphylococcus aureus. Description: Antimicrobial activity against Staphylococcus aureus MTCC 96 assessed as growth inhibition after 24 hr by agar streak dilution technique. The following applies: MTCC 96, 24 h.
Assay [8] concerns Candida albicans. Description: Antimicrobial activity against Candida albicans MTCC 183 assessed as diameter of growth inhibition zone after 24 hr by paper disk diffusion technique.
Assay [9] relates to Aspergillus niger. Put plainly: Antimicrobial activity against Aspergillus niger MTCC 282 assessed as diameter of growth inhibition zone after 24 hr by paper disk diffusion technique.
The test system of assay [10] is Pseudomonas aeruginosa. Description: Antimicrobial activity against Pseudomonas aeruginosa MTCC 741 assessed as diameter of growth inhibition zone after 24 hr by paper disk diffusion technique.
The subject of assay [11] is Escherichia coli. Description: Antimicrobial activity against Escherichia coli MTCC 739 assessed as diameter of growth inhibition zone after 24 hr by paper disk diffusion technique.
Assay [12] has as its system Bacillus subtilis. Description: Antimicrobial activity against Bacillus subtilis MTCC 430 assessed as diameter of growth inhibition zone after 24 hr by paper disk diffusion technique.
Assay [13] has as its system Staphylococcus aureus. Description: Antimicrobial activity against Staphylococcus aureus MTCC 96 assessed as diameter of growth inhibition zone after 24 hr by paper disk diffusion technique.

This is an account of results in ChEMBL document CHEMBL3045012, “Quinoline-based azetidinone and thiazolidinone analogues as antimicrobial and antituberculosis agents” (2013).

≈ marks a conversion by molar mass, not a printed value.

For `O=C1C(Cl)C(c2cc3ccccc3nc2Cl)N1c1cccc([N+](=O)[O-])c1` (configuration not stated), the “growth inhibition (GI)” value in assay [1] was 93%. Moreover, the MIC in assay [1] came to 100 µg/mL (≈ 258 µM); in [2] it was 100 µg/mL (≈ 258 µM); in [3], 50 µg/mL (≈ 129 µM); in assay [4] it was 50 µg/mL (≈ 129 µM); in assay [5] it was 62.5 µg/mL (≈ 161 µM); in assay [6], 50 µg/mL (≈ 129 µM). Further, the MIC in assay [7] is 25 µg/mL (≈ 64.4 µM). Besides, the “diameter of the inhibition zone (DIZ)” value amounted to 19 mm in assay [8]; 26 mm in assay [9]; 22 mm in assay [10]; 22 mm in assay [11]; 21 mm in assay [12]; 25 mm in assay [13].
Regarding `O=C1C(Cl)C(c2cc3ccccc3nc2Cl)N1c1ccccc1` (configuration not stated), the “growth inhibition (GI)” value in assay [1] was determined as 90%. In addition, the MIC in assay [1] came out at 500 µg/mL (≈ 1460 µM); in [2], 100 µg/mL (≈ 291 µM); in assay [3], 100 µg/mL (≈ 291 µM); in assay [4], 100 µg/mL (≈ 291 µM); in [5], 100 µg/mL (≈ 291 µM); in [6] it was 100 µg/mL (≈ 291 µM). Moreover, in assay [7], the MIC worked out at 100 µg/mL (≈ 291 µM). Further, the “diameter of the inhibition zone (DIZ)” value in assay [8], in assay [9], in assay [10], in assay [11], in assay [12] and in [13] was below 10 mm throughout.
For the compound `Cc1ccccc1N1C(=O)CSC1c1cc2ccccc2nc1Cl` (configuration not stated), in assay [1], the “growth inhibition (GI)” value is reported as 90%. In addition, the MIC in [1] was determined as 500 µg/mL (≈ 1410 µM); in assay [2], 100 µg/mL (≈ 282 µM); in assay [3] it was 100 µg/mL (≈ 282 µM); in [4], 100 µg/mL (≈ 282 µM); in assay [5], 100 µg/mL (≈ 282 µM); in assay [6], 100 µg/mL (≈ 282 µM). Also, the MIC in [7] amounted to 100 µg/mL (≈ 282 µM). For the same compound, the “diameter of the inhibition zone (DIZ)” value in assay [8], in assay [9], in [10], in assay [11], in [12] and in [13] was below 10 mm throughout.
Turning to `O=C1C(Cl)C(c2cc3ccccc3nc2Cl)N1c1ccc(Cl)cc1` (configuration not stated), in assay [1], the “growth inhibition (GI)” value came to 95%. Also, the MIC came out at 100 µg/mL (≈ 265 µM) in assay [1]; 62.5 µg/mL (≈ 165 µM) in assay [2]; 100 µg/mL (≈ 265 µM) in [3]; 25 µg/mL (≈ 66.2 µM) in assay [4]; 50 µg/mL (≈ 132 µM) in [5]; 12.5 µg/mL (≈ 33.1 µM) in [6]. For the same compound, in assay [7], the MIC was 50 µg/mL (≈ 132 µM). Also, the “diameter of the inhibition zone (DIZ)” value is given as 21 mm in assay [8]; 22 mm in [9]; 23 mm in assay [10]; 22 mm in assay [11]; 24 mm in [12]; 21 mm in assay [13].
As to `O=C1CSC(c2cc3ccccc3nc2Cl)N1c1ccc(F)cc1` (configuration not stated), in [1], the “growth inhibition (GI)” value worked out at 99%. Moreover, the MIC in assay [1] is 12.5 µg/mL (≈ 34.8 µM); in assay [2], 25 µg/mL (≈ 69.7 µM); in assay [3] it was 12.5 µg/mL (≈ 34.8 µM); in assay [4], 25 µg/mL (≈ 69.7 µM); in assay [5], 25 µg/mL (≈ 69.7 µM); in assay [6] it was 12.5 µg/mL (≈ 34.8 µM). For the same compound, the MIC in [7] amounted to 25 µg/mL (≈ 69.7 µM). For the same compound, the “diameter of the inhibition zone (DIZ)” value in assay [8] was 24 mm; in assay [9] it was 25 mm; in [10] it was 24 mm; in [11] it was 23 mm; in assay [12], 23 mm; in [13], 24 mm.
On to `O=C1CSC(c2cc3ccccc3nc2Cl)N1c1cccc([N+](=O)[O-])c1` (configuration not stated), for which the “growth inhibition (GI)” value in [1] came out at 94%. Moreover, the MIC is 100 µg/mL (≈ 259 µM) in [1]; 25 µg/mL (≈ 64.8 µM) in assay [2]; 25 µg/mL (≈ 64.8 µM) in assay [3]; 12.5 µg/mL (≈ 32.4 µM) in assay [4]; 62.5 µg/mL (≈ 162 µM) in assay [5]; 50 µg/mL (≈ 130 µM) in [6]. Also, in [7], the MIC was determined as 12.5 µg/mL (≈ 32.4 µM). Besides, the “diameter of the inhibition zone (DIZ)” value in [8] came out at 23 mm; in [9], 24 mm; in assay [10] it was 24 mm; in [11], 22 mm; in assay [12] it was 22 mm; in assay [13], 26 mm.
For the compound `Cc1cccc(N2C(=O)C(Cl)C2c2cc3ccccc3nc2Cl)c1` (configuration not stated), the “growth inhibition (GI)” value in assay [1] worked out at 90%. Also, the minimum inhibitory concentration (MIC) was determined as 500 µg/mL (≈ 1400 µM) in assay [1]; 100 µg/mL (≈ 280 µM) in assay [2]; 100 µg/mL (≈ 280 µM) in assay [3]; 100 µg/mL (≈ 280 µM) in assay [4]; 100 µg/mL (≈ 280 µM) in [5]; 100 µg/mL (≈ 280 µM) in [6]. For the same compound, in assay [7], the MIC turned out to be 100 µg/mL (≈ 280 µM). The “diameter of the inhibition zone (DIZ)” value in [8] is reported as below 10 mm; in assay [9] it was 20 mm; in [10], 16 mm; in assay [11], 14 mm; in assay [12], 18 mm; in assay [13], below 10 mm.
On to `NC(=O)c1cnccn1` [PYRAZINAMIDE], for which, in assay [1], the “growth inhibition (GI)” value came to 99% and the minimal inhibitory concentration (MIC) is 6.25 µg/mL (≈ 50.8 µM).
In the case of `O=C1CSC(c2cc3ccccc3nc2Cl)N1c1ccc(Cl)cc1` (configuration not stated), the “growth inhibition (GI)” value in assay [1] is listed as 96%. For the same compound, the MIC in [1] amounted to 62.5 µg/mL (≈ 167 µM); in assay [2], 50 µg/mL (≈ 133 µM); in [3], 12.5 µg/mL (≈ 33.3 µM); in [4], 25 µg/mL (≈ 66.6 µM); in assay [5], 50 µg/mL (≈ 133 µM); in assay [6], 12.5 µg/mL (≈ 33.3 µM). The MIC in assay [7] came to 50 µg/mL (≈ 133 µM). Besides, the “diameter of the inhibition zone (DIZ)” value in assay [8] is recorded as 22 mm; in assay [9], 25 mm; in [10], 24 mm; in [11] it was 23 mm; in assay [12], 24 mm; in assay [13], 23 mm.
For `Cc1ccccc1N1C(=O)C(Cl)C1c1cc2ccccc2nc1Cl` (configuration not stated), in [1], the “growth inhibition (GI)” value was 91%. The MIC in assay [1] is 1000 µg/mL (≈ 2800 µM); in assay [2], 100 µg/mL (≈ 280 µM); in assay [3] it was 100 µg/mL (≈ 280 µM); in [4], 100 µg/mL (≈ 280 µM); in assay [5], 100 µg/mL (≈ 280 µM); in [6], 100 µg/mL (≈ 280 µM). In [7], the MIC was 100 µg/mL (≈ 280 µM). The “diameter of the inhibition zone (DIZ)” value in [8] is listed as below 10 mm; in [9], below 10 mm; in assay [10], below 10 mm; in [11] it was below 10 mm; in [12], below 10 mm; in assay [13], 16 mm.
Consider `CC(=O)N1CCN(c2ccc(OCC3COC(Cn4ccnc4)(c4ccc(Cl)cc4Cl)O3)cc2)CC1` (configuration not stated) [KETOCONAZOLE], for which the minimal inhibitory concentration (MIC) in [2] is at most 1 µg/mL; in assay [3], at most 3 µg/mL. Besides, the “diameter of the inhibition zone (DIZ)” value in [8] is on record as 33 mm; in [9] it was 30 mm.
For `O=C(O)c1cn(C2CC2)c2cc(N3CCNCC3)c(F)cc2c1=O` [CIPROFLOXACIN], the minimum inhibitory concentration (MIC) in assay [4], in assay [5], in assay [6] and in [7] was at most 1 µg/mL each time. Further, the “diameter of the inhibition zone (DIZ)” value in [10] is 33 mm; in [11], 32 mm; in assay [12], 31 mm; in assay [13], 30 mm.
With `CC[C@@H](CO)NCCN[C@@H](CC)CO` [ETHAMBUTOL], in [1], the “growth inhibition (GI)” value is recorded as 99% and the minimal inhibitory concentration (MIC) was 3.12 µg/mL (≈ 15.3 µM).
